{"source": "ChEMBL document CHEMBL5325471", "about": "“Identification of new modulator of DNA repairing pathways based on natural product (±)-peharmaline A” (Bioorg Med Chem, 2023)", "key": {"[1]": {"tested_on": "MCF7", "assay": "Antiproliferative activity against human MCF7 cells assessed as cell growth inhibition incubated for 44 hrs by MTT assay", "type": "functional, cell-based", "conditions": "MCF7, 44 h"}, "[2]": {"tested_on": "A549", "assay": "Antiproliferative activity against human A549 cells assessed as cell growth inhibition incubated for 44 hrs by MTT assay", "type": "functional, cell-based", "conditions": "A549, 44 h"}, "[3]": {"tested_on": "HCT-116", "assay": "Antiproliferative activity against human HCT-116 cells assessed as cell growth inhibition incubated for 44 hrs by MTT assay", "type": "functional, cell-based", "conditions": "HCT-116, 44 h"}, "[4]": {"assay": "Cytotoxicity against human fR2 cells assessed as cell growth inhibition incubated for 44 hrs by MTT assay", "type": "toxicity, cell-based"}, "[5]": {"assay": "Cmax in BALB/c mouse at 20 mg/kg, ip measured upto 24 hrs by LC-MS/MS analysis", "type": "ADME, organism-based", "set-up": "dose 20 mg/kg, time < 24 hrs, route ip", "conditions": "in vivo"}, "[6]": {"assay": "Tmax in BALB/c mouse at 20 mg/kg, ip measured upto 24 hrs by LC-MS/MS analysis", "type": "ADME, organism-based", "conditions": "in vivo"}, "[7]": {"assay": "Elimination half life in BALB/c mouse at 20 mg/kg, ip measured upto 24 hrs by LC-MS/MS analysis", "type": "ADME, organism-based", "conditions": "in vivo, read-out: beta t1/2 (converted)"}, "[8]": {"assay": "AUC (0 to infinity) in BALB/c mouse at 20 mg/kg, ip measured upto 24 hrs by LC-MS/MS analysis", "type": "ADME, organism-based", "set-up": "dose 20 mg/kg, time < 24 hrs, route ip", "conditions": "in vivo"}, "[9]": {"assay": "Clearance in BALB/c mouse at 20 mg/kg, ip measured upto 24 hrs by LC-MS/MS analysis", "type": "ADME, organism-based", "conditions": "in vivo"}, "[10]": {"tested_on": "HCT-116", "assay": "Induction of DNA damage in human HCT-116 cell assessed as increase in olive tail moment at 0.5 uM incubated for 24 hrs by EtBr-based alkaline Comet assay (Rvb= 0.26%)", "type": "functional"}, "[11]": {"tested_on": "HCT-116", "assay": "Induction of DNA damage in human HCT-116 cell assessed as comet tail formation at 0.5 uM incubated for 24 hrs by EtBr-based alkaline Comet assay (Rvb= 2.99 %)", "type": "functional"}, "[12]": {"tested_on": "HCT-116", "assay": "Induction of cell cycle arrest in human HCT-116 cells assessed as accumulation of cells at G1 phase at 0.5 uM incubated for 24 hrs by RNase/PI staining-based FACS flow cytometry analysis (reference value: 51 %)", "type": "functional"}, "[13]": {"tested_on": "HCT-116", "assay": "Induction of cell cycle arrest in human HCT-116 cells assessed as accumulation of cells at G1 phase at 1 uM incubated for 24 hrs by RNase/PI staining-based FACS flow cytometry analysis (reference value: 51 %)", "type": "functional"}, "[14]": {"tested_on": "HCT-116", "assay": "Induction of cell cycle arrest in human HCT-116 cells assessed as accumulation of cells at G2 phase at 0.5 uM incubated for 24 hrs by RNase/PI staining-based FACS flow cytometry analysis (reference value: 33 %)", "type": "functional"}, "[15]": {"tested_on": "HCT-116", "assay": "Induction of cell cycle arrest in human HCT-116 cells assessed as accumulation of cells at S phase at 0.5 uM incubated for 24 hrs by RNase/PI staining-based FACS flow cytometry analysis (reference value: 11 %)", "type": "functional"}, "[16]": {"tested_on": "HCT-116", "assay": "Induction of cell cycle arrest in human HCT-116 cells assessed as accumulation of cells at S phase at 1 uM incubated for 24 hrs by RNase/PI staining-based FACS flow cytometry analysis (reference value: 11 %)", "type": "functional"}, "[17]": {"tested_on": "HCT-116", "assay": "Induction of cell cycle arrest in human HCT-116 cells assessed as accumulation of cells at S phase at 2 uM incubated for 24 hrs by RNase/PI staining-based FACS flow cytometry analysis (reference value: 11 %)", "type": "functional"}, "[18]": {"tested_on": "HCT-116", "assay": "Induction of cell cycle arrest in human HCT-116 cells assessed as accumulation of cells at G2 phase at 1 uM incubated for 24 hrs by RNase/PI staining-based FACS flow cytometry analysis (reference value: 33 %)", "type": "functional"}, "[19]": {"tested_on": "HCT-116", "assay": "Inhibition of DNA repairing pathway in human HCT-116 cells assessed as downregulation of Rad51 protein expression at 0.25 to 2 uM incubated for 24 hrs by immunoblotting analysis", "type": "functional, cell-based", "conditions": "dose 0.25-2 µM"}, "[20]": {"tested_on": "HCT-116", "assay": "Inhibition of DNA repairing pathway in human HCT-116 cells assessed as downregulation of H2AX protein expression at 0.25 to 2 uM incubated for 24 hrs by immunoblotting analysis", "type": "functional, cell-based", "conditions": "dose 0.25-2 µM"}, "[21]": {"tested_on": "HCT-116", "assay": "Induction of DNA double-strand breaks in human HCT-116 cells assessed as increase in gammaH2AX accumulation at 0.25 to 2 uM incubated for 24 hrs by immunoblotting analysis", "type": "functional, cell-based", "conditions": "dose 0.25-2 µM"}, "[22]": {"tested_on": "HCT-116", "assay": "Inhibition of epithelial-to-mesenchymal transition in human HCT-116 cells assessed as upregulation of E-cadherin protein expression by immunoblot analysis", "type": "functional, cell-based"}, "[23]": {"tested_on": "HCT-116", "assay": "Inhibition of epithelial-to-mesenchymal transition in human HCT-116 cells assessed as downregulation of Twist-1 protein expression by immunoblot analysis", "type": "functional, cell-based"}, "[24]": {"tested_on": "HCT-116", "assay": "Inhibition of epithelial-to-mesenchymal transition in human HCT-116 cells assessed as downregulation of Snail-1 protein expression by immunoblot analysis", "type": "functional, cell-based"}, "[25]": {"tested_on": "4T1", "assay": "Antitumor activity against mouse 4T1 cells implanted in BALB/c mouse assessed as reduction in tumor weight at 20 mg/kg, ip administered every alternate day for 2 weeks relative to control", "type": "functional", "set-up": "scale not given: the % may be the effect or the level left"}, "[26]": {"tested_on": "4T1", "assay": "Antitumor activity against mouse 4T1 cells implanted in BALB/c mouse assessed as reduction in tumor volume at 20 mg/kg, ip administered every alternate day for 2 weeks relative to control", "type": "functional", "set-up": "scale not given: the % may be the effect or the level left"}, "[27]": {"tested_on": "HCT-116", "assay": "Induction of DNA damage in human HCT-116 cell assessed as increase in olive tail moment at 1 uM incubated for 24 hrs by EtBr-based alkaline Comet assay (Rvb= 0.26%)", "type": "functional"}, "[28]": {"tested_on": "HCT-116", "assay": "Induction of DNA damage in human HCT-116 cell assessed as increase in olive tail moment at 2 uM incubated for 24 hrs by EtBr-based alkaline Comet assay (Rvb= 0.26%)", "type": "functional"}, "[29]": {"tested_on": "HCT-116", "assay": "Induction of DNA damage in human HCT-116 cell assessed as increase in olive tail moment at 4 uM incubated for 24 hrs by EtBr-based alkaline Comet assay (Rvb= 0.26%)", "type": "functional"}, "[30]": {"tested_on": "HCT-116", "assay": "Induction of DNA damage in human HCT-116 cell assessed as comet tail formation at 1 uM incubated for 24 hrs by EtBr-based alkaline Comet assay (Rvb= 2.99 %)", "type": "functional"}, "[31]": {"tested_on": "HCT-116", "assay": "Induction of DNA damage in human HCT-116 cell assessed as comet tail formation at 2 uM incubated for 24 hrs by EtBr-based alkaline Comet assay (Rvb= 2.99 %)", "type": "functional"}, "[32]": {"tested_on": "HCT-116", "assay": "Induction of DNA damage in human HCT-116 cell assessed as comet tail formation at 4 uM incubated for 24 hrs by EtBr-based alkaline Comet assay (Rvb= 2.99 %)", "type": "functional"}, "[33]": {"tested_on": "HCT-116", "assay": "Inhibition of DNA repairing pathway in human HCT-116 cells assessed as increase in cleaved PARP level at 0.25 to 2 uM incubated for 24 hrs by immunoblotting analysis", "type": "functional, cell-based", "conditions": "dose 0.25-2 µM"}, "[34]": {"tested_on": "HCT-116", "assay": "Inhibition of DNA repairing pathway in human HCT-116 cells assessed as increase in gamma-H2AX level at 0.25 to 2 uM incubated for 24 hrs by immunoblotting analysis", "type": "functional, cell-based", "conditions": "dose 0.25-2 µM"}, "[35]": {"tested_on": "HCT-116", "assay": "Inhibition of DNA repairing pathway in human HCT-116 cells assessed as increase in p-Chk2 level at 0.25 to 2 uM incubated for 24 hrs by immunoblotting analysis", "type": "functional, cell-based", "conditions": "dose 0.25-2 µM"}, "[36]": {"assay": "Toxicity in BALB/c mouse implanted with mouse 4T1 cells at 20 mg/kg, ip administered every alternate day for 2 weeks", "type": "organism-based", "conditions": "in vivo, 336 h"}}, "note": "Activity calls are given as the source filed them. The calls are words filed in the database; no cut-off is given here.", "data": [{"compound": "COC(=O)[C@]1([C@H]2CCn3c2nc2ccccc2c3=O)NCCc2c1[nH]c1ccccc21", "note": "(racemic)", "values": [{"measurement": "IC50", "setting": "[1]", "result": 1410, "unit": "nM"}, {"measurement": "IC50", "setting": "[2]", "result": 1680, "unit": "nM"}, {"measurement": "IC50", "setting": "[3]", "result": 1020, "unit": "nM"}, {"measurement": "IC50 at 44 h", "setting": "[4]", "result": 19.7, "unit": "µM"}, {"measurement": "Cmax", "setting": "[5]", "result": 4490, "unit": "ng/mL"}, {"measurement": "Tmax", "setting": "[6]", "result": 48, "unit": "min"}, {"measurement": "half-life", "setting": "[7]", "result": 96, "unit": "min"}, {"measurement": "AUC(0-inf)", "setting": "[8]", "result": 11200, "unit": "ng·h/mL"}, {"measurement": "CL/F", "setting": "[9]", "result": 30, "unit": "mL/min/kg"}, {"measurement": "Activity", "setting": "[10]", "result": 5.21, "unit": "%"}, {"measurement": "Activity", "setting": "[11]", "result": 31.99, "unit": "%"}, {"measurement": "Activity", "setting": "[12]", "result": 66, "unit": "%"}, {"measurement": "Activity", "setting": "[13]", "result": 71, "unit": "%"}, {"measurement": "Activity", "setting": "[14]", "result": 24, "unit": "%"}, {"measurement": "Activity", "setting": "[15]", "result": 7, "unit": "%"}, {"measurement": "Activity", "setting": "[16]", "result": 7, "unit": "%"}, {"measurement": "Activity", "setting": "[17]", "result": 4, "unit": "%"}, {"measurement": "Activity", "setting": "[18]", "result": 17, "unit": "%"}, {"measurement": "inhibition", "setting": "[19]", "result": "Active"}, {"measurement": "inhibition", "setting": "[20]", "result": "Active"}, {"measurement": "Activity", "setting": "[21]", "result": "Active"}, {"measurement": "inhibition", "setting": "[22]", "result": "Active"}, {"measurement": "inhibition", "setting": "[23]", "result": "Active"}, {"measurement": "inhibition", "setting": "[24]", "result": "Active"}, {"measurement": "Activity", "setting": "[25]", "result": 63, "unit": "%"}, {"measurement": "Activity", "setting": "[26]", "result": 89.3, "unit": "%"}, {"measurement": "Activity", "setting": "[27]", "result": 9.53, "unit": "%"}, {"measurement": "Activity", "setting": "[28]", "result": 14.05, "unit": "%"}, {"measurement": "Activity", "setting": "[29]", "result": 24.72, "unit": "%"}, {"measurement": "Activity", "setting": "[30]", "result": 48, "unit": "%"}, {"measurement": "Activity", "setting": "[31]", "result": 51.03, "unit": "%"}, {"measurement": "Activity", "setting": "[32]", "result": 61.4, "unit": "%"}, {"measurement": "inhibition", "setting": "[33]", "result": "Active"}, {"measurement": "inhibition", "setting": "[34]", "result": "Active"}, {"measurement": "inhibition", "setting": "[35]", "result": "Active"}, {"measurement": "Activity", "setting": "[36]", "result": "Non-Toxic"}]}]}
